Among the data in US9718854B2, “Selective glycosidase inhibitors and uses thereof” (priority 2011, dated 2017) are EC50 and Ki values, retold here.

One assay addresses O-GlcNAcase (Rattus norvegicus (Rat), UniProt Q8VIJ5). As to the kind of experiment: Cell-based ELISA of O-GlcNAcylated protein (RL-2 antibody) for cellular O-GlcNAcase inhibition. The text has this:
Assay for Determination of Cellular Activity for Compounds that Inhibit O-GlcNAcase Activity
Inhibition of O-GlcNAcase, which removes O-GlcNAc from cellular proteins, results in an increase in the level of O-GlcNAcylated protein in cells. An increase in O-GlcNAcylated protein can be measured by an antibody, such as RL-2, that binds to O-GlcNAcylated protein. The amount of O-GlcNAcylated protein:RL2 antibody interaction can be measured by enzyme linked immunosorbant assay (ELISA) procedures.
Compounds to be tested were dissolved in DMSO, either 2 or 10 mM stock solution, and then diluted with DMSO and water in a two-step process using a Tecan workstation. […] If desired, the total protein concentration of samples was determined using 20 μL of the sample using the BCA method. […]
The amount of O-GlcNAcylated protein, as detected by the ELISA assay, was plotted for each concentration of test compound using standard curve fitting algorithms for sigmoidal dose response curves. The values for a four parameter logistic curve fit of the data were determined, with the inflection point of the curve being the potency value for the test compound.
A general note: An ELISA detects its analyte on a solid surface through an enzyme-linked reagent.

For another assay, the target named is human O-GlcNAcase (Homo sapiens (Human), UniProt O60502). Briefly: biochemical. The following applies: purified human O-GlcNAcase, 4-methylumbelliferyl N-acetyl-β-D-glucosaminide substrate, pH 7.0, Cheng-Prusoff; read-out: Fluorescence-based hOGA Ki. On the procedure:
Assay for Determination of KI Values for Inhibition of O-GlcNAcase Activity
Experimental Procedure for Kinetic Analyses:
Enzymatic reactions were carried out in a reaction containing 50 mM NaH2PO4, 100 mM NaCl and 0.1% BSA (pH 7.0) using 2 mM 4-Methylumbelliferyl N-acetyl-β-D-glucosaminide dihydrate (Sigma M2133) dissolved in ddH2O, as a substrate. The amount of purified human O-GlcNAcase enzyme used in the reaction was 0.7 nM. Test compound of varying concentrations was added to the enzyme prior to initiation of the reaction. The reaction was performed at room temperature in a 96-well plate and was initiated with the addition of substrate. […] The slope of product production was determined for each concentration of compound tested and plotted, using standard curve fitting algorithms for sigmoidal dose response curves. The values for a four parameter logistic curve fit of the data were determined.

Structures are written as SMILES. Read-outs that look alike come from different tables or passages of the source.

Chain of O-GlcNAcase (Q8VIJ5 whole entry): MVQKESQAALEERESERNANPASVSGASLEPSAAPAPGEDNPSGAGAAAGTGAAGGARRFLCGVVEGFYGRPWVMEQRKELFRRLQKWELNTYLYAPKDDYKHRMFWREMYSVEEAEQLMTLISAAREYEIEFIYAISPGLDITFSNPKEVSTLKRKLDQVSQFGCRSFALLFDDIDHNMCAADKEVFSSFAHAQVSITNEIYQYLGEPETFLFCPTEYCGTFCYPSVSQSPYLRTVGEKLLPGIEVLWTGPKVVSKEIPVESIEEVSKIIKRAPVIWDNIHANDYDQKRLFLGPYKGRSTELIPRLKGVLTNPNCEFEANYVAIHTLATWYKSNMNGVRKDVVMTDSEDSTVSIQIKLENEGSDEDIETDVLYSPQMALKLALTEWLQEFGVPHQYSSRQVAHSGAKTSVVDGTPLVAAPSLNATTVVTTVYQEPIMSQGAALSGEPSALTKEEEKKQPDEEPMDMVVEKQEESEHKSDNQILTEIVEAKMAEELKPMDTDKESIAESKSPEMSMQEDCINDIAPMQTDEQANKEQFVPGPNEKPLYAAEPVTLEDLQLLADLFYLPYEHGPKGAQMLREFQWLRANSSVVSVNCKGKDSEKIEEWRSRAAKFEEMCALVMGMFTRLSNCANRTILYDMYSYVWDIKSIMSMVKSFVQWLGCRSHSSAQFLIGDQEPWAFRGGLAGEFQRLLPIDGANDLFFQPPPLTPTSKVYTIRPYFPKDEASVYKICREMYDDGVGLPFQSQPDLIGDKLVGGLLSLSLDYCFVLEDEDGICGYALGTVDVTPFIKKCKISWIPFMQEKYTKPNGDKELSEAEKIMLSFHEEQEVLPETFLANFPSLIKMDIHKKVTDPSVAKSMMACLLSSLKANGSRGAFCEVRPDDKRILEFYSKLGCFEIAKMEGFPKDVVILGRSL
Chain of human O-GlcNAcase (O60502 whole entry): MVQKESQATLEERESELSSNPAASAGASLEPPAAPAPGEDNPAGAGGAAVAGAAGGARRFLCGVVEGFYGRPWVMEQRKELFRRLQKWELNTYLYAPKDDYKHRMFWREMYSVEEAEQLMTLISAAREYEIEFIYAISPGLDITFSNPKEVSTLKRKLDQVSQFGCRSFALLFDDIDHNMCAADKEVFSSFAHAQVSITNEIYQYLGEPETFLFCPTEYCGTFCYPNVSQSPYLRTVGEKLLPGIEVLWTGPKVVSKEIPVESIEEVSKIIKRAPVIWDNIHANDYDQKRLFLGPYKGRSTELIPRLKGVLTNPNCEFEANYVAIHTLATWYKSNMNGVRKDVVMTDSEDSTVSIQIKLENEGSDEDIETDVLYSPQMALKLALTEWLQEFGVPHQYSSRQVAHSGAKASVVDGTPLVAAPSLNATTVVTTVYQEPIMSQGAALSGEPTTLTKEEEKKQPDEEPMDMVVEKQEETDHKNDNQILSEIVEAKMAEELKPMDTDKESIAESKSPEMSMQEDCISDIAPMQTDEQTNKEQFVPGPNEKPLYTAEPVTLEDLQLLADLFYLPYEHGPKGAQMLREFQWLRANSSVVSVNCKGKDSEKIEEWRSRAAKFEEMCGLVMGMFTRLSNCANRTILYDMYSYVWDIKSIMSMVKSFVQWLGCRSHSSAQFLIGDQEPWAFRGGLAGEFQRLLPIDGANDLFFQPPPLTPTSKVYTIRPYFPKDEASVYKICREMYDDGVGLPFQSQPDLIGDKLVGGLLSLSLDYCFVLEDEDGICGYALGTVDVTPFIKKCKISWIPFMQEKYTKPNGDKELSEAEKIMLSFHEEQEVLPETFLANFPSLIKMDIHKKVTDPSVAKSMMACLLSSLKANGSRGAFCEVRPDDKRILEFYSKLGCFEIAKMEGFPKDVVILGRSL

A word on the EC50: it is the concentration needed to bring the measured effect to its halfway point. Take `CNC1=N[C@@H]2[C@@H](O)[C@H](O)[C@@H](COC(=O)N(C)C)O[C@@H]2S1` [Example 9, ((3aR,5R,6S,7R,7aR)-6,7-dihydroxy-2-(methylamino)-5,6,7,7a-tetrahydro-3aH-pyrano[3,2-d]thiazol-5-yl)methyl dimethylcarbamate]: at O-GlcNAcase (rat PC-12 cells, 24 h treatment, O-GlcNAcylated protein detected with RL-2 antibody, read-out: Cell-based ELISA EC50), the concentration giving a half-maximal response (EC50) worked out at 212 nM.
Regarding `CNC1=N[C@@H]2[C@@H](O)[C@H](O)[C@@H](CNC3CCCC3)O[C@@H]2S1` [Example 37, (3aR,5R,6S,7R,7aR)-5-((cyclopentylamino)methyl)-2-(methylamino)-5,6,7,7a-tetrahydro-3aH-pyrano[3,2-d]thiazole-6,7-diol], the response at O-GlcNAcase was half-maximal at 3.7 nM (EC50).
For orientation: Ki means a dissociation constant, usually derived from enzyme kinetics or from competition with a known ligand. Turning to `CNC1=N[C@@H]2[C@@H](O)[C@H](O)[C@@H](CNCC#N)O[C@@H]2S1` [Example 53, 2-((((3aR,5R,6S,7R,7aR)-6,7-dihydroxy-2-(methylamino)-5,6,7,7a-tetrahydro-3aH-pyrano[3,2-d]thiazol-5-yl)methyl)amino)acetonitrile], the Ki at human O-GlcNAcase was found to be 5.4 nM.
